Assay results: US20070270428A1, “Use of Cyclooxygenase-2 Inhibitors for the Treatment of Depressive Disorders” (priority 2003, published 2007)
Where two headings read alike, the source gives them in different places. Values belong to the compound of their own block, whether it stands above or below them.

Assays:
[1] = biological target: T1, human COX-2 (Homo sapiens, UniProt P35354); experiment: Inhibition of human COX-2 in stably transfected COS cells (PGE2 release); format: cell-based; conditions: COS cells stably transfected with human COX-2
T1 construct: expressed in transfected cells; host or cells: COS cells (stably transfected)
T1 sequence (P35354 18-604): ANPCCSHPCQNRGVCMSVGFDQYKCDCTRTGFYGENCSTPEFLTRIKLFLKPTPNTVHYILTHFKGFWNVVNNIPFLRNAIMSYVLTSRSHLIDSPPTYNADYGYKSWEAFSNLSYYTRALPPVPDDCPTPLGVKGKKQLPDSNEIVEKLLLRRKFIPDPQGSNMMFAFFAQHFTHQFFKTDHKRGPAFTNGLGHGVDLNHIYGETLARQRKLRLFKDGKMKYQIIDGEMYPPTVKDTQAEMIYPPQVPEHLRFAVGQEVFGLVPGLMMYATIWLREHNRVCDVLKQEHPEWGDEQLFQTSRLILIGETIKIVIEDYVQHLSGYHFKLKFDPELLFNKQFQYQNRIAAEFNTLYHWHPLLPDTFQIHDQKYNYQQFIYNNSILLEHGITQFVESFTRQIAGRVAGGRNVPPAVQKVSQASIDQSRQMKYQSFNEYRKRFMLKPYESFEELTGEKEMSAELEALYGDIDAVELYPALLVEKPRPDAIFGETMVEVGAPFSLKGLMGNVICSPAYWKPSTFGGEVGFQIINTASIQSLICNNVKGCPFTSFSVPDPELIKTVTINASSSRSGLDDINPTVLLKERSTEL
Procedure: (§1) 24 Hours prior to experiment, COS cells were transferred from the 175 cm^2 flasks in which they were grown, onto 24-well cell culture plates using the following procedure. The incubation medium
(Dulbecco's modified eagles medium (DMEM) supplemented with heat-inactivated foetal calf serum (10% v/v), penicillin (100 lU/ml), streptomycin (100 μg/ml) and geneticin (600 μg/ml)) was removed from a flask of confluent cells (1 flask at confluency contains approximately 1×10^7 cells). 10 ml of phosphate buffered saline (PBS) was added to the flask to wash the cells. Having discarded the PBS, cells were then rinsed in 10 ml trypsin for 20 seconds, after which the trypsin was removed and the flask placed in an incubator (37°) for 1-2 minutes until cells became detached from the flask. The flask was then removed from the incubator and cells resuspended in 10 ml of fresh incubation medium. The contents of the flask was transferred to a 250 ml sterile container and the volume of incubation medium subsequently made up to 100 ml. […] If more than 1 flask of cells were required, the cells from the individual flasks were combined before being dispensed into the 24-well plates.
Following the overnight incubation, the incubation medium was completely removed from the 24-well cell culture plates and replaced with 250 μl fresh DMEM (37° C.). […]

[2] = biological target: T2, microsomal h-COX2 (Homo sapiens, UniProt P35354); experiment: Microsomal assay, COX-2 (microsomal preparation from baculovirus infected SF9 cells); format: biochemical
T2 construct: made in house; host or cells: baculovirus infected SF9 cells (microsomal preparation)
T2 sequence (P35354 18-604): T1 sequence (P35354 18-604)
Procedure: Inhibitory activity against microsomal h-COX2 was assessed against a microsomal preparation from baculovirus infected SF9 cells. An aliquot of microsomal preparation was thawed slowly on ice and a 1/40,000 dilution prepared from it into the assay buffer (sterile water, degassed with argon containing 100 mM HEPES (pH 7.4), 10 mM EDTA (pH7.4), 1 mM phenol, 1 mM reduced glutathione, 20 mg/ml gelatin and 0.001 mM Hematin). Once diluted the enzyme solution was then sonicated for 5 seconds (Branson sonicator, setting 4, 1 cm tip) to ensure a homogeneous suspension. […] Plates were then mixed and incubated at room temperature for 1 hour. Following the incubation period, 40 μl of 0.5 μM arachidonic acid was added to each well to give a final concentration of 0.1 μM. Plates were then mixed and incubated for exactly 10 minutes (room temperature) prior to addition of 25 μl 1M HCl (hydrochloric acid) to each well to stop the reaction. 25 μl of 1M NaOH (sodium hydroxide) was then added to each well to neutralise the solution prior to determination of PGE2 levels by enzyme immunoassay (EIA).

[3] = tested on: male Sprague-Dawley rats; experiment: Chronic Inescapable Shock in Rats (escape test); format: in vivo, rat; conditions: stressed rats
Procedure: The Chronic Inescapable Shock in Rats model, developed from the learned Helplessness paradigm, was used to investigate the acquisition of shock-induced escape deficits in rats in the absence and presence of SSRI±COX-2 inhibitors. The test was performed over a period of seven days as an adaptation of the methodology used previously by Gambarana, C., […]. & De Montis, M. G. (1995). Experiments were carried out on male Sprague-Dawley rats (Charles River, Como, Italy). Animals were kept in a controlled environment with a constant temperature of 22° C. and a 12 hour light/12 hour inverted dark cycle, with free access to food and water. The procedures used in this study for all animals were in strict accordance with the European legislation on the use and care of laboratory animals (CEE N° 86/609) and experiments were performed under red light. The experimental procedure consists of a pre-test session (exposure to an unavoidable stress of minimum intensity and duration required to induce a reliable behavioural modification) followed 24 hours later by an escape test (for the assessment of the induced behavioural modification). […]

[4] = biological target: T3, human COX-1 (Homo sapiens, UniProt P23219); experiment: Inhibition of human COX-1 in stably transfected COS cells (PGE2 release); format: cell-based; conditions: COS cells stably transfected with human COX-1
T3 construct: expressed in transfected cells; host or cells: COS cells (stably transfected)
Procedure: as §1
(Dulbecco's modified eagles medium (DMEM) supplemented with heat-inactivated foetal calf serum (10% v/v), penicillin (100 lU/ml), streptomycin (100 μg/ml) and geneticin (600 μg/ml)) was removed from a flask of confluent cells (1 flask at confluency contains approximately 1×10^7 cells). 10 ml of phosphate buffered saline (PBS) was added to the flask to wash the cells. Having discarded the PBS, cells were then rinsed in 10 ml trypsin for 20 seconds, after which the trypsin was removed and the flask placed in an incubator (37°) for 1-2 minutes until cells became detached from the flask. The flask was then removed from the incubator and cells resuspended in 10 ml of fresh incubation medium. The contents of the flask was transferred to a 250 ml sterile container and the volume of incubation medium subsequently made up to 100 ml. […] The plates were then placed in an incubator (37° C., 95% air/5% CO2) overnight. If more than 1 flask of cells were required, the cells from the individual flasks were combined before being dispensed into the 24-well plates.
Following the overnight incubation, the incubation medium was completely removed from the 24-well cell culture plates and replaced with 250 μl fresh DMEM (37° C.). The test compounds were made up to 250× the required test concentration in DMSO and were added to the wells in a volume of 1 μl. Plates were then mixed gently by swirling and then placed in an incubator for 1 hour (37° C., 95% air/5% CO2). Following the incubation period, 10 μl of arachidonic acid (750 μM) was added to each well to give a final arachidonic acid concentration of 30 μM. Plates were then incubated for a further 15 minutes, after which the incubation medium was removed from each well of the plates and stored at −20° C., prior to determination of prostaglandin E2 (PGE2) levels using enzyme immunoassay. The inhibitory potency of the test compound was expressed as an IC50 value, which is defined as the concentration of the compound required to inhibit the PGE2 release from the cells by 50%. The selectivity ratio of inhibition of COX-1 versus COX-2 was calculated by comparing respective IC50 values.

[5] = microsomal assay, PGE2 by EIA, read-out: COX-2: IC50

T3 sequence (P23219 24-599): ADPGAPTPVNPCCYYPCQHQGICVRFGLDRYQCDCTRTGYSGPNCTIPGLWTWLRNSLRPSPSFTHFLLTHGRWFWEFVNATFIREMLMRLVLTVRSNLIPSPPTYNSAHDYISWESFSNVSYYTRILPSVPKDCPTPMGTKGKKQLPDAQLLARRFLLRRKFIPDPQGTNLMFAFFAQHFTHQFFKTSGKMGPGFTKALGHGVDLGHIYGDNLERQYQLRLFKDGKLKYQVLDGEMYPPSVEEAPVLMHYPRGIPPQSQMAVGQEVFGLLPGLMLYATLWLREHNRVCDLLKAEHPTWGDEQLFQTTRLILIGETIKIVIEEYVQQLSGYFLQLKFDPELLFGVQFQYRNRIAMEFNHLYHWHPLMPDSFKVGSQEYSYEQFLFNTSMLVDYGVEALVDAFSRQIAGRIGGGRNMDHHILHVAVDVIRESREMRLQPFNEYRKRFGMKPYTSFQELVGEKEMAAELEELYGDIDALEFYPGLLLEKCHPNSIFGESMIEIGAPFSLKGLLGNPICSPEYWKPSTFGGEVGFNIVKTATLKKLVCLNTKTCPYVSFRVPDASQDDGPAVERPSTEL

Structure (SMILES): COc1ccc(-c2nn3ncccc3c2-c2ccc(S(C)(=O)=O)cc2)cc1 [2.2(ii), 3-(4-Methanesulfonyl-phenyl)-2-(4-methoxy-phenyl)-pyrazolo[1,5-b]pyridazine]
IC50 [1]: < 0.01 µM

Structure (SMILES): Fc1ccc([C@@H]2CCNC[C@H]2COc2ccc3c(c2)OCO3)cc1 (relative stereo) [PAROXETINE, trans-(−)-3-[(1,3-benzodioxol-5-yloxy)methyl]-4-(4-fluorophenyl)piperidine]
MEAN Number of escapes ([3]; 7 days of treatment p.o., escapes out of 30 consecutive trials on day 8): 3.8
reversal of chronic escape deficit ([3]; after 7 days of treatment, day 8): lack of reversal of chronic inescapable shock

Structure (SMILES): CS(=O)(=O)c1ccc(-c2cc(C(F)(F)F)cc(OCc3ccccn3)n2)cc1 [Example 3.2, 2-[4-(methylsulfonyl)phenyl]-6-[(2-pyridinylmethyl)oxy]-4-(trifluoromethyl)pyridine]
IC50 ([2]; stated in text after the microsomal assay table, read-out: IC50 values for inhibition of COX-2): ≤ 0.5 µM

Structure (SMILES): CS(=O)(=O)c1ccc(-c2c(-c3ccc(F)cc3)nn3nc(OC(F)F)ccc23)cc1 [2.1(v), 6-Difluoromethoxy-2-(4-fluoro-phenyl)-3-(4-methanesulfonyl-phenyl)-pyrazolo[1,5-b]pyridazine]
IC50 [4]: > 100 µM

Structure (SMILES): CS(=O)(=O)c1ccc(-c2c(-c3cccc(F)c3)nn3nc(OC(F)F)ccc23)cc1 [2.7(viii), 6-Difluoromethoxy-2-(3-fluoro-phenyl)-3-(4-methanesulfonyl-phenyl)-pyrazolo[1,5-b]pyridazine]
IC50 [4]: > 55.2 µM

Structure (SMILES): CCOc1ccc(-c2nn3ncccc3c2-c2ccc(S(C)(=O)=O)cc2)cc1 [2.3(ii), 2-(4-Ethoxy-phenyl)-3-(4-methanesulfonyl-phenyl)-pyrazolol[5-b]pyridazine]
IC50 [4]: > 100 µM

Continued, values first:

IC50 [2, 5]: < 0.01 µM
Structure (SMILES): Cc1ccc(Oc2nc(-c3ccc(S(C)(=O)=O)cc3)cc(C(F)(F)F)n2)cc1 [Example 1.6]

IC50 [2, 5]: < 0.01 µM
Structure (SMILES): CS(=O)(=O)c1ccc(-c2cc(C(F)(F)F)nc(Oc3cncc(Cl)c3)n2)cc1 [Example 1.7]

IC50 [4]: > 100 µM
Structure (SMILES): CS(=O)(=O)c1ccc(-c2c(-c3ccc(OC(F)F)cc3)nn3ncccc23)cc1 [Compound 2.5, 2-(4-Difluoromethoxy-phenyl)-3-(4-methanesulfonyl-phenyl)-pyrazolo[1,5-b]pyridazine]
